PubChem BioAssay (NCI)
Several values for one entry are separate records, joined by “and”; a condition that tells them apart may be missing. Identical values can stand only once.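 Grown in 96-well plates, cells were treated for 48 hours with each compound at five concentrations. Insufficient inhibition: endpoint recorded as highest concentration tested. GI50 is the concentration that inhibits growth by half. TGI: total growth inhibition.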

How the values were obtained:
Test in all cases: growth of human tumour cells (NCI), 48 h
A498 renal = tested on: A498 renal
A549 NSCLC = tested on: A549 NSCLC
EKVX NSCLC = tested on: EKVX NSCLC
M14 melanoma = tested on: M14 melanoma
MDA-MB-435 = tested on: MDA-MB-435
MOLT-4 leukemia = tested on: MOLT-4 leukemia
NCI-H226 lung = tested on: NCI-H226 lung
PC-3 prostate = tested on: PC-3 prostate
T-47D breast = tested on: T-47D breast
UACC-257 melanoma = tested on: UACC-257 melanoma

| SMILES | TGI (A498 renal) | TGI (A549 NSCLC) | TGI (EKVX NSCLC) | TGI (M14 melanoma) | TGI (MDA-MB-435) | TGI (MOLT-4 leukemia) | TGI (NCI-H226 lung) | TGI (PC-3 prostate) | TGI (T-47D breast) | TGI (UACC-257 melanoma) | GI50 (A498 renal) | GI50 (A549 NSCLC) | GI50 (M14 melanoma) | GI50 (MDA-MB-435) | GI50 (MOLT-4 leukemia) | GI50 (NCI-H226 lung) | GI50 (PC-3 prostate) | GI50 (T-47D breast) | GI50 (UACC-257 melanoma) | GI50 (EKVX NSCLC) |
| --- | --- | --- | --- | --- | --- | --- | --- | --- | --- | --- | --- | --- | --- | --- | --- | --- | --- | --- | --- | --- |
| CN(C)CC1CCCCCC(Br)C1=O (centres undefined) | > 100 µM | > 100 µM | 30.8 µM | 37.5 µM | 34.1 µM | 2.83 µM | > 53.9 µM | 43.6 µM | > 54.6 µM | 23 µM |  |  |  |  |  |  |  |  |  |  |
| COc1ccc(-c2nc(-c3ccccn3)c(-c3ccccn3)n2CC(C)C)cc1OC1CCCC1 | 82.7 µM | 65.1 µM |  | 114 µM | > 165 µM | 61.6 µM | > 165 µM | 83.8 µM | > 165 µM | 95.3 µM | 16.5 µM | 9.02 µM | 22.7 µM | 31.3 µM | 18 µM | 21.3 µM | 11.1 µM | 9.73 µM | 26.2 µM |  |
| Nc1nc(-c2ccc(Cl)cc2)cc(-c2ccc(Cl)cc2)c1-c1nc2ccccc2o1 | 34.6 µM | 40.7 µM | 31.4 µM | 34.4 µM | 36.1 µM | 27.4 µM | 34.9 µM | 27.1 µM | 29.6 µM | 37.8 µM | 19.6 µM | 15.5 µM | 17.4 µM | 18.3 µM | 12.1 µM | 19.1 µM | 13.2 µM | 13.4 µM | 18.4 µM | 16.3 µM |
| COc1ccc(C2=N[C@@H](c3ccc(Cl)cc3)[C@@H](c3ccc(Cl)cc3)N2C(=O)N2CCNC(=O)C2)c(OC(C)C)c1 | 25.6 µM and 21.9 µM and 24.1 µM | 27.4 µM and 18.4 µM and 17.4 µM | 24.1 µM and 25.2 µM and 27.3 µM | 28.4 µM and 32 µM and 33.2 µM | 27.9 µM and 27.5 µM and 33.3 µM | 28.4 µM and > 36.2 µM and 17.2 µM | 30.2 µM and 6.83 µM and 5.86 µM | 26.7 µM and 24.9 µM and 28 µM | 30.4 µM and 27.4 µM and 40.6 µM | 26.5 µM and 19.3 µM and 18.3 µM | 12.6 µM and 6.1 µM and 9.23 µM | 13.3 µM and 3.9 µM and 3.65 µM | 14.1 µM and 14.9 µM and 16.3 µM | 14.2 µM and 13.6 µM and 16.1 µM | 7.54 µM and 3.5 µM and 2.74 µM | 13.7 µM and 1.57 µM and 1.56 µM | 11.2 µM and 11.1 µM and 12.3 µM | 14.6 µM and 10.5 µM and 15.2 µM | 13.2 µM and 4.26 µM and 3.98 µM | 10.3 µM and 12.1 µM and 12.9 µM |
| CN1CCN(c2ccc3nc(-c4[nH]ncc4Nc4ncnc5c4OCCCN5)[nH]c3c2)CC1 | 0.0341 µM | 0.116 µM | 0.183 µM | 0.0706 µM | 0.081 µM | 0.315 µM | 0.0573 µM | 0.0671 µM | 0.155 µM | 0.213 µM | < 0.013 µM | < 0.01 µM | < 0.0115 µM | < 0.01 µM | < 0.01 µM | < 0.01 µM | < 0.01 µM | 0.0129 µM | 0.0252 µM | 0.0168 µM |
| O=C(c1ccco1)c1nc2cc(C(F)(F)F)ccc2[n+]([O-])c1C(F)(F)F | > 100 µM | > 100 µM | > 100 µM | > 100 µM | > 100 µM | > 100 µM |  | > 100 µM | > 100 µM | > 100 µM | 39.3 µM | > 100 µM | 43.8 µM | 37 µM | 90.3 µM |  | 43.3 µM | 19.2 µM | 69.8 µM | 34 µM |
| CC[C@H]1CN(C)[C@H]2Cc3c([nH]c4ccccc34)C(=O)C[C@H]1C2C(=O)OC (some centres undefined) | > 100 µM | > 100 µM | > 100 µM | > 100 µM | > 100 µM | > 100 µM | > 100 µM | > 100 µM | > 100 µM | > 100 µM |  |  |  |  |  |  |  |  |  |  |
| COc1ccc(-c2nnc(SCC(=O)Nc3ccc(C(=O)/C=C/c4cc(OC)c(OC)c(OC)c4)cc3)n2-c2ccccc2)cc1OC | > 10 µM | > 10 µM |  | > 10 µM | 9.91 µM | > 10 µM | 8.06 µM | > 10 µM | > 10 µM | > 10 µM | 5 µM | 4.33 µM | 3.33 µM | 1.77 µM | 9.46 µM | 2.29 µM | 6.89 µM | 4.74 µM | > 10 µM |  |
| Cc1ccc2nc3c(n2c1)C(=O)C(=O)c1ccccc1-3 | 2.71 µM | 0.62 µM | 1.65 µM | 0.34 µM | 0.137 µM | 1.79 µM | 1.29 µM | 3.81 µM | 1.74 µM | 0.382 µM | 1.37 µM | 0.199 µM | 0.183 µM | 0.0661 µM | 0.434 µM | 0.371 µM | 0.59 µM | 0.389 µM | 0.146 µM | 0.654 µM |
| CCOc1cc2c(=O)oc3c(OC)ccc4ccc(c1OC)c2c43 | > 100 µM | > 100 µM | > 100 µM | > 100 µM | > 100 µM | > 100 µM | > 100 µM | > 100 µM | > 100 µM | > 100 µM |  |  |  |  |  |  |  |  |  |  |
| c1ccc2cc(C[n+]3ccn(Cc4ccc5ccccc5n4)c3)ccc2c1 | 3.9 µM and 24.1 µM | 14.1 µM and 24.2 µM | 7.34 µM and 31.4 µM | 4.55 µM and 17.1 µM | 1.31 µM and 10.6 µM | 5.04 µM and 14.7 µM | 4.87 µM and 21.6 µM | 3.18 µM and 13.9 µM |  |  | 0.492 µM and 2.49 µM |  | 0.727 µM and 3.26 µM | 0.312 µM and 2.46 µM | 0.488 µM and 3.19 µM | 1.06 µM and 4.51 µM | 0.342 µM and 2.39 µM | 0.239 µM and 2.32 µM | 0.28 µM and 2.7 µM |  |
| CCCCCCCCNC(C)C(O)c1ccc(SC(C)C)cc1 (centres undefined) | 2.86 µM |  | 2.98 µM | 3.26 µM | 3.21 µM | 5.27 µM | 3.85 µM | 3.02 µM | 2.85 µM |  | 1.5 µM |  | 1.72 µM | 1.69 µM | 2.48 µM | 1.81 µM | 1.58 µM | 1.32 µM |  | 1.44 µM |
| CC#CC#C/C=C1\C=CC2(OC=CC2OC(C)=O)O1 (centres undefined) | > 100 µM | > 100 µM | > 100 µM | > 100 µM and 37.9 µM | > 100 µM | 64.6 µM and 53.2 µM | > 100 µM and 23.4 µM | > 100 µM | 73.9 µM | > 100 µM and 33.6 µM |  |  |  |  | 6.9 µM and 17.8 µM | > 100 µM and 11.1 µM |  |  | 30.5 µM and 15 µM |  |
| O=C(Cc1ccc(Nc2ccnc(C(F)(F)F)c2)cc1)Nc1cc(Cl)ccc1O | 10.6 µM | > 100 µM | 16.9 µM | 33.6 µM | 17.5 µM | 5.39 µM | 32.3 µM | 12.4 µM | 11.3 µM | 49.8 µM | 3.03 µM | 15.3 µM | 12.3 µM | 4.33 µM | 1.73 µM | 10.3 µM | 2.58 µM | 2.77 µM | 11.8 µM | 3.12 µM |
